Counter-ions that a name gives are not always drawn.
Legend:
[1] = biological target: T1, glycine transporter-1 (GlyT-1) (Homo sapiens, UniProt P48067); test: [14C]glycine uptake assay in JAR cells endogenously expressing GlyT-1 (scintillation proximity); type: cell-based; details: JAR cells, [14C]glycine 5 μM, 3 hour incubation; read-out: GlyT-1 IC50
T1 construct: JAR cells (ATCC#HTB-144), which endogenously express GlyT-1; host or cells: JAR human choriocarcinoma cells
T1 sequence (P48067 1-706): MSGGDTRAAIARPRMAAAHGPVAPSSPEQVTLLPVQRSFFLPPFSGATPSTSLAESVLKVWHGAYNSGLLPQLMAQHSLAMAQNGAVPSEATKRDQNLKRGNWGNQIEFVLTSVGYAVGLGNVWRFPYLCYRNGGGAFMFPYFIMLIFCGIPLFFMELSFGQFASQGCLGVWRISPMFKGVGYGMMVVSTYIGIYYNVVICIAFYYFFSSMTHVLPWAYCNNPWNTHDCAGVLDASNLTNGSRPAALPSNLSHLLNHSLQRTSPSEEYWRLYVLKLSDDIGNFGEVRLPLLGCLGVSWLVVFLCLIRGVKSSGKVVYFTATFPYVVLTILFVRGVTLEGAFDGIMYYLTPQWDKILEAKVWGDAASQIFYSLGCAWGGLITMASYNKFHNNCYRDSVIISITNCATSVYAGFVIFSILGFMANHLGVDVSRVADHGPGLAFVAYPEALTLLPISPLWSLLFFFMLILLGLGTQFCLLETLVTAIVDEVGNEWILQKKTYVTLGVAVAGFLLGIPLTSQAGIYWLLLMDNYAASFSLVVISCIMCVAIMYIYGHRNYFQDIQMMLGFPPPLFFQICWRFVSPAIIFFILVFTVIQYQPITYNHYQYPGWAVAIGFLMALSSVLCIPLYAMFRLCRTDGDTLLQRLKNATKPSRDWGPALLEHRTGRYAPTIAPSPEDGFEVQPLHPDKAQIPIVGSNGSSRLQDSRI
Outline: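 IC50 comes from a four-parameter fit of nine-point, duplicate curves measuring inhibition of 5 μM [14C]glycine uptake, read by scintillation proximity after 3 h at 37 °C. Cells are human JAR, which express GlyT-1 endogenously, given 10 min compound pre-treatment in pH 7.4 buffer with 5 mM alanine and 0.75% DMSO.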

SMILES | IC50 [1] [nM] | melting point [°C]
Cl.Cn1cnc(S(=O)(=O)N2CCN(C3(CNC(=O)c4ccc(C(F)(F)F)cc4Cl)CCC(F)(F)CC3)CC2)n1 [compound 281, 2-Chloro-N-((4,4-difluoro-1-(4-(1-methyl-1H-1,2,4-triazol-3-ylsulfonyl)piperazin-1-yl)cyclohexyl)methyl)-4-(trifluoromethyl)benzamide Hydrochloride] | 284 | 180 to 185
CC(=O)CS(=O)(=O)N1CCN(C2(CNC(=O)c3ccc(C(F)(F)F)cc3Cl)CCC(F)(F)CC2)CC1 (as salt: hydrochloride) [compound 280, 2-Chloro-N-((4,4-difluoro-1-(4-(2-oxopropylsulfonyl)piper-azin-1-yl)cyclohexyl)methyl)-4-(trifluoromethyl) benzamide Hydrochloride] |  | 65 to 67
CC(O)CS(=O)(=O)N1CCN(C2(CNC(=O)c3ccc(C(F)(F)F)cc3Cl)CCC(F)(F)CC2)CC1.Cl (single isomer, unassigned; enantiomer a) [compound 278, (Enantiomer A)-2-Chloro-N-((4,4-difluoro-1-(4-(2-hydroxypropylsulfonyl)piperazin-1-yl)cyclohexyl)methyl)-4-(trifluoromethyl) benzamide Hydrochloride] | 24 | 80 to 82
Cn1cc(S(=O)(=O)N2CCN(C3(CNC(=O)c4ccc(C(F)(F)F)cc4C(F)(F)F)CCOCC3)CC2)nn1 (as salt: hydrochloride) [compound 276, N-((4-(4-(1-Methyl-1H-1,2,3-triazol-4-ylsulfonyl)piperazin-1-yl)tetrahydro-2H-pyran-4-yl)methyl)-2,4-bis(trifluoromethyl) benzamide Hydrochloride] |  | 145
Cl.Cn1cc(S(=O)(=O)N2CCN(C3(CNC(=O)c4ccc(C(F)(F)F)cc4Cl)CCOCC3)CC2)nn1 [compound 277, 2-Chloro-N-((4-(4-(1-methyl-1H-1,2,3-triazol-4-ylsulfonyl)piperazin-1-yl)tetrahydro-2H-pyran-4-yl)methyl)-4-(trifluoromethyl)benzamide Hydrochloride] | 8 | 147

Reference: patent publication US9045445B2, “Glycine transporter-1 inhibitors, methods of making them, and uses thereof” (Albany Molecular Research, Inc., priority 2010, dated 2015)
